Measurements published in patent publication CN111743889A, “赤麻木脂素的新用途” (Shanghai Institute of Materia Medica of CAS, priority 2019, dated 2020).

Legend:
Assay type in all cases: cell-based
[1] = biological target: T1, TYK2 (Homo sapiens, UniProt P29597); assay: Western blot, TYK2 phosphorylation; details: IL-6, IFN-γ and IFN-α induced, 10 min; compound 1, 5, 10, 20 μM, 1 h
T1 construct: 将细胞以每孔15万的量接种在24孔板内; endogenous in cells; HepG2 and HEK293 are the only lines named

[2] = system: IκBα; assay: Western blot, IκBα phosphorylation; details: TNF-α induced, 10 min; compound 1, 5, 10, 20 μM, 1 h
[3] = system: STAT3 transcription factor [STAT3转录因子]; assay: STAT3 luciferase reporter gene assay (IL-6 induced); details: HepG2 cells stably transfected with reporter; IL-6 10 ng/ml induced; compound 1-40 μM, added 1 h before stimulus; read 5 h after
[4] = biological target: T2, PDGFRα (Homo sapiens, UniProt P16234); assay: Western blot, PDGFRα phosphorylation; details: same concentrations (1, 5, 10, 20 μM), 1 h
T2 construct: 将细胞以每孔15万的量接种在24孔板内; endogenous in cells

[5] = system: IKK-α/β; assay: Western blot, IKK-α/β phosphorylation; details: TNF-α induced, 10 min; compound 1, 5, 10, 20 μM, 1 h
[6] = biological target: T3, PDGFRβ (Homo sapiens, UniProt P09619); assay: Western blot, PDGFRβ phosphorylation; details: same concentrations (1, 5, 10, 20 μM), 1 h
T3 construct: 将细胞以每孔15万的量接种在24孔板内; endogenous in cells

[7] = biological target: T4, JAK1 (Homo sapiens, UniProt P23458); assay: Western blot, JAK1 phosphorylation; details: IL-6, IFN-γ and IFN-α induced, 10 min; compound 1, 5, 10, 20 μM, 1 h
T4 construct: 将细胞以每孔15万的量接种在24孔板内; endogenous in cells; HepG2 and HEK293 are the only lines named

[8] = system: STAT1 transcription factor [STAT1转录因子]; assay: STAT1 luciferase reporter gene assay (IFN-γ induced); details: HepG2 cells stably transfected with reporter; IFN-γ 10 ng/ml induced; compound 1-40 μM, added 1 h before stimulus; read 5 h after
[9] = biological target: T5, IGF1R (Homo sapiens, UniProt P08069); assay: Western blot, IGF1R phosphorylation; details: same concentrations (1, 5, 10, 20 μM), 1 h
T5 construct: 将细胞以每孔15万的量接种在24孔板内; endogenous in cells

[10] = system: STAT1; assay: Western blot, STAT1 phosphorylation; details: IFN-γ induced, 10 min; compound 1, 5, 10, 20 μM, 1 h
[11] = system: STAT3; assay: Western blot, STAT3 phosphorylation; details: IL-6 induced, 10 min; compound 1, 5, 10, 20 μM, 1 h
[12] = biological target: T6, EGFR (Homo sapiens, UniProt P00533); assay: Western blot, EGFR phosphorylation; details: same concentrations (1, 5, 10, 20 μM), 1 h
T6 construct: 将细胞以每孔15万的量接种在24孔板内; endogenous in cells

[13] = biological target: T7, JAK2 (Homo sapiens, UniProt O60674); assay: Western blot, JAK2 phosphorylation; details: IL-6, IFN-γ and IFN-α induced, 10 min; compound 1, 5, 10, 20 μM, 1 h
T7 construct: 将细胞以每孔15万的量接种在24孔板内; endogenous in cells; HepG2 and HEK293 are the only lines named

[14] = system: NF-κB signalling pathway [NF-κB信号通路]; assay: NF-κB luciferase reporter gene assay (TNF-α induced); details: HEK293 cells with reporter; TNF-α 10 ng/ml induced; compound 1-40 μM, added 1 h before stimulus; read 5 h after

T3 sequence (P09619 33-1106): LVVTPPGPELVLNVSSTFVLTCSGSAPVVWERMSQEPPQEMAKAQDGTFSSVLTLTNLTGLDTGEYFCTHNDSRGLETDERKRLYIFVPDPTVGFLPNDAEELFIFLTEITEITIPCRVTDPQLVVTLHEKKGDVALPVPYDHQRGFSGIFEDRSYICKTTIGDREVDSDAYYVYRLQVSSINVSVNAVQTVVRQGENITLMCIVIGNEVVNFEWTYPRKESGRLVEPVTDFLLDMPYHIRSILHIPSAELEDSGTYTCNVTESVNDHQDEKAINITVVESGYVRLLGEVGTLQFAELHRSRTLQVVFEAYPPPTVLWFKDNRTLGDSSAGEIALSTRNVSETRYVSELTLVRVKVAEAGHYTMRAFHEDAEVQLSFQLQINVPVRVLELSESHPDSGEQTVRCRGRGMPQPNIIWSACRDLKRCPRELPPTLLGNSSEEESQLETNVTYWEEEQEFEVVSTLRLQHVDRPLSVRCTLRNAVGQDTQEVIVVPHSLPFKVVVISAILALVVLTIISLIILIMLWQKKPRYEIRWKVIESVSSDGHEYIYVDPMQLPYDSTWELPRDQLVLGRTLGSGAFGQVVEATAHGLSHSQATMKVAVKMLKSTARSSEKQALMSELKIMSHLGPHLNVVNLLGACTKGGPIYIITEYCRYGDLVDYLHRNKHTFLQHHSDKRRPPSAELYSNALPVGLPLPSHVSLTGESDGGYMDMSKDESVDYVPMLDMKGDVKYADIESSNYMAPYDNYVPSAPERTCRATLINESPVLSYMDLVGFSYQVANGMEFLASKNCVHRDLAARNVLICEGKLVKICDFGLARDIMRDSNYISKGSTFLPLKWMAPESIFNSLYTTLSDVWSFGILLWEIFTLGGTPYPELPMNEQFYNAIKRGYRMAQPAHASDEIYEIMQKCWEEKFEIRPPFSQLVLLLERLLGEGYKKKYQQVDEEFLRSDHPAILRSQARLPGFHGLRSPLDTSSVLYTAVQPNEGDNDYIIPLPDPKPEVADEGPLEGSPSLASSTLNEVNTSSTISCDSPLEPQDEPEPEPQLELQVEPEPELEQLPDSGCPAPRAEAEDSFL
T5 sequence (P08069 31-1367): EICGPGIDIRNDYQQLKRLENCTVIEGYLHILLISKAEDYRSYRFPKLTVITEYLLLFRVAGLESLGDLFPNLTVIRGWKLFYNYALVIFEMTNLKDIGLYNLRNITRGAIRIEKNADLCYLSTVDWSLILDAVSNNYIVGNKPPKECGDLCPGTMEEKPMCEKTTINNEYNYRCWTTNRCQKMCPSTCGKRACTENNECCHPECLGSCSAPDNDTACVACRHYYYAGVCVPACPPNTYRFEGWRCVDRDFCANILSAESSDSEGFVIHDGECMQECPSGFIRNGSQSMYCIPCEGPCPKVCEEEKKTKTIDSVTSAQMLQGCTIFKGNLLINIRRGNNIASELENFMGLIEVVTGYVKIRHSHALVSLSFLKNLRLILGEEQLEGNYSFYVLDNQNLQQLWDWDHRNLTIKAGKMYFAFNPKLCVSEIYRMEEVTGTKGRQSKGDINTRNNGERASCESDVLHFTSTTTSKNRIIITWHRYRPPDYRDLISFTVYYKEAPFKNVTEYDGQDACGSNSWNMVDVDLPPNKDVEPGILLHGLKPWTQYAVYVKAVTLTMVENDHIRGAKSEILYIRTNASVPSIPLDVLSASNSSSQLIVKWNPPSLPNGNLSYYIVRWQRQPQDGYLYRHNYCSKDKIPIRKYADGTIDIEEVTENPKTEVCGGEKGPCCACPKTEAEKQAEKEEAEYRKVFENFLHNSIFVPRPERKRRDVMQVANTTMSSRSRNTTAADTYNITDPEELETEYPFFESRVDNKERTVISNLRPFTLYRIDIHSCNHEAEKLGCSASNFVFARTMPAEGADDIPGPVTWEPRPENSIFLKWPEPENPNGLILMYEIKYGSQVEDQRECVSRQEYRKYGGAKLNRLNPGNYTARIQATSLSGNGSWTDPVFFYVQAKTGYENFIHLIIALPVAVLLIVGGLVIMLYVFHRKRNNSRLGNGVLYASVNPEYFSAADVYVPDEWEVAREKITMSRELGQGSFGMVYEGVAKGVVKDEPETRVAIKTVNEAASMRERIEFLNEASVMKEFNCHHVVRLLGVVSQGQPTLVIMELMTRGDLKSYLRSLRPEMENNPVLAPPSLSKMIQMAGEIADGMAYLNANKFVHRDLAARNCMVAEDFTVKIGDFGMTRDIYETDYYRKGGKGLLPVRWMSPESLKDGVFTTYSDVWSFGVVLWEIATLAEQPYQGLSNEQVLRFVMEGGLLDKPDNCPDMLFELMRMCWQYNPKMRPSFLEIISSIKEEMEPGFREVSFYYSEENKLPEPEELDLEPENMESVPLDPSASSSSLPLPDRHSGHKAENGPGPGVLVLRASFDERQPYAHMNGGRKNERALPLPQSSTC
T6 sequence (P00533 25-1210): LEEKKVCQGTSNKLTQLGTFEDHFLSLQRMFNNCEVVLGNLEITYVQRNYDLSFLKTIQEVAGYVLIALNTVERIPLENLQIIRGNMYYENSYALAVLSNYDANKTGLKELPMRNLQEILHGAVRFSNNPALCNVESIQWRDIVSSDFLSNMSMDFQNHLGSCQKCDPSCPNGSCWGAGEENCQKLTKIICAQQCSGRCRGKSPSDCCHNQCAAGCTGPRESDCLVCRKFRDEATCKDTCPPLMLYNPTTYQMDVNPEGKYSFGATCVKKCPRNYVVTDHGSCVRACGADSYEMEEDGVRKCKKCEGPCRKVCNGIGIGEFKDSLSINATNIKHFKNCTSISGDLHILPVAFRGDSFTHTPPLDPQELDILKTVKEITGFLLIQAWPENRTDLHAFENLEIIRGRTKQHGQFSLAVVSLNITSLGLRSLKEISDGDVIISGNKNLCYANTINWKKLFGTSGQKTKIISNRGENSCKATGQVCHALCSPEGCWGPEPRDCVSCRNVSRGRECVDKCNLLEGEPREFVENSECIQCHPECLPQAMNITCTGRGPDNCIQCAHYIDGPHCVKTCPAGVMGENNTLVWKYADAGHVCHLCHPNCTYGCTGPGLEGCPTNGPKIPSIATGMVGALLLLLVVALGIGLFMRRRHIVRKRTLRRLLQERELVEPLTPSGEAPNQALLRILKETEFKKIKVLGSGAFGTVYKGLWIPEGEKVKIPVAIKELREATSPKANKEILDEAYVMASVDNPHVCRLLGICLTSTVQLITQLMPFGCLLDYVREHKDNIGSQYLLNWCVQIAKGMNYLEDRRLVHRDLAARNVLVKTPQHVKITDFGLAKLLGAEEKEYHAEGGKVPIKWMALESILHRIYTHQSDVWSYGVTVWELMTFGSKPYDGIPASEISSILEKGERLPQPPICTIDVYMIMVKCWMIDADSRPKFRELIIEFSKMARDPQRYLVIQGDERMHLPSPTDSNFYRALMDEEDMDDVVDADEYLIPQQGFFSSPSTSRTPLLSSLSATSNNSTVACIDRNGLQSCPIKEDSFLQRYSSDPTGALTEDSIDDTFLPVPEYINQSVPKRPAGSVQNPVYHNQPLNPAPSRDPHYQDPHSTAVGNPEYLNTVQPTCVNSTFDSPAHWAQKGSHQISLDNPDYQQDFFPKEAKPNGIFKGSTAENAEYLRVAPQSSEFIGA
T4 sequence (P23458 whole entry): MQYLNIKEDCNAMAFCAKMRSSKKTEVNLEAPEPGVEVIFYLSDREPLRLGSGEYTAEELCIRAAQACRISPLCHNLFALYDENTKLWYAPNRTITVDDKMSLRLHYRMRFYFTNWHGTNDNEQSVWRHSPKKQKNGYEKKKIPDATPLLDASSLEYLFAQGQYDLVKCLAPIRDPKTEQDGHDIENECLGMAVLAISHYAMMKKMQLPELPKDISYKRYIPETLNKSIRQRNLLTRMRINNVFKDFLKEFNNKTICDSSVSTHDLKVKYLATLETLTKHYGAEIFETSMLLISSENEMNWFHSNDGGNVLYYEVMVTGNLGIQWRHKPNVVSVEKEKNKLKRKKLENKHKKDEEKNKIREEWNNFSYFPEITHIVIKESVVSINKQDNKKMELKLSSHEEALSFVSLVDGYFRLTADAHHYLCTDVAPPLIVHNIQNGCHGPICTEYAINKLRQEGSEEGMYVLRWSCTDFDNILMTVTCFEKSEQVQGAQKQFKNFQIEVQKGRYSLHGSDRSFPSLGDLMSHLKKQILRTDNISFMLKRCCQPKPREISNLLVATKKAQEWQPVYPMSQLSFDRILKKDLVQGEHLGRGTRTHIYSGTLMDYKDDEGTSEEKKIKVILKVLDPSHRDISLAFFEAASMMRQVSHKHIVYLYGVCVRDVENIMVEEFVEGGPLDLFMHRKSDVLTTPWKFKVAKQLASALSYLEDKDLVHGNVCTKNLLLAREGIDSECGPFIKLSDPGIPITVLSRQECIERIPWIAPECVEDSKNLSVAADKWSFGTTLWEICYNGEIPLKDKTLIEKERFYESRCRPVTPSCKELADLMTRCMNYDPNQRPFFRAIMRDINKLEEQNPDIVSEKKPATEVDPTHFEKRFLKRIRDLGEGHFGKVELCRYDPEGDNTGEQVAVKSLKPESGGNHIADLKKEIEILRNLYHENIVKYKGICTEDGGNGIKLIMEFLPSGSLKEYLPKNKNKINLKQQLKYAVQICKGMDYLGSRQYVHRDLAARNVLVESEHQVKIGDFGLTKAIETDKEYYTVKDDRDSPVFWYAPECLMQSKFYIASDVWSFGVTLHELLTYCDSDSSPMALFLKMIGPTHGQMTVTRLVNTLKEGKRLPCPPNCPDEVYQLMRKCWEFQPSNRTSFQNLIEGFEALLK

inhibition of JAK phosphorylation (p-TYK2) [1]: 抑制
inhibition of transcriptional activity of STAT3 transcription factor (luciferase) [3]: 剂量依赖性的抑制
effect on phosphorylation of other tyrosine kinases (PDGFRα) [4]: 没有抑制作用
effect on phosphorylation of other tyrosine kinases (PDGFRβ) [6]: 没有抑制作用
inhibition of JAK phosphorylation (p-JAK1) [7]: 抑制
inhibition of transcriptional activity of STAT1 transcription factor (luciferase) [8]: 剂量依赖性的抑制
effect on phosphorylation of other tyrosine kinases (IGF1R) [9]: 没有抑制作用
effect on phosphorylation of other tyrosine kinases (EGFR) [12]: 没有抑制作用
inhibition of JAK phosphorylation (p-JAK2) [13]: 抑制
inhibition of NF-κB signalling pathway (NF-κB-dependent luciferase activity) [14]: 浓度依赖性的抑制
Compound: COc1cc(C=CC(=O)OCCCc2cc(OC)c3c(c2)C(COC(=O)C=Cc2ccc(O)c(OC)c2)C(c2ccc(O)c(OC)c2)O3)ccc1O (centres unmarked) [赤麻木脂素, 3-(4-Hydroxy-3-methoxyphenyl)propenoic acid 3-[2,3-dihydro-2-(4-hydroxy-3-methoxyphenyl)-3-[[[3-(4-hydroxy-3-methoxyphenyl)-1-oxo-2-propenyl]oxy]methyl]-7-methoxybenzofuran-5-yl]propyl ester]
inhibition of IκBα phosphorylation [2]: 抑制
inhibition of IKK-α/β phosphorylation [5]: 抑制
inhibition of STAT1 phosphorylation [10]: 抑制
inhibition of STAT3 phosphorylation [11]: 抑制
